Non-standard residues stand in square brackets, D forms with d. No end group written: not given here. pS = N[C@@H](COP(=O)(O)O)C(=O)O
Assays:
GST-Pin1 = assay type: binding; details: mGluR5 expressed in HEK293 cells
NMDA receptors = experiment: Whole-cell voltage clamp: mGluR5-SIC, NMDA receptor dependence; assay type: cell-based
mGluR5 [1] = details: bath application, 5 μM
mGluR5-SIC [2] = assay type: cell-based, mouse; details: Homer1−/−Homer2−/−Homer3−/− neurons; for effect of Pin1 peptide on BDNF potentiation of mGluR5-SIC: 0.5 μM in the pipette, n = 5
[3] = test system: corticostriatal synapse depotentiation; experiment: Field potential recording: depotentiation of corticostriatal LTP; design: species or system mouse; details: SKF38393 3 μM
mGluR5-SIC [4] = experiment: Whole-cell voltage clamp: SKF38393; assay type: cell-based, mouse
Homer1a [5] = target: T1, Homer1a (Rattus norvegicus, UniProt Q9Z214); experiment: ITC of mGluR5 peptide into full length Homer1a; assay type: binding; details: versus unphosphorylated peptide
T1 sequence (Q9Z214 1-186 isoform Q9Z214-3): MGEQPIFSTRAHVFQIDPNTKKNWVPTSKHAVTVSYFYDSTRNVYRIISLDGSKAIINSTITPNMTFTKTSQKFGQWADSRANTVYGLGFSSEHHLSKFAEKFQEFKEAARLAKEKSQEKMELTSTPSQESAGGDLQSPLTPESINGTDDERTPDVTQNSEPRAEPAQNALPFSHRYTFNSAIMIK

Pin1 = Pin1 (Homo sapiens, UniProt Q13526); experiment: 15N ZZ-exchange NMR: Pin1-catalyzed cis/trans isomerization of mGluR5 peptide; assay type: biochemical; details: Homer1a equimolar to peptide; Pin1 sub-stoichiometric (1:10)
[6] = test system: glutamate and dopamine in the nucleus accumbens; experiment: In vivo microdialysis: glutamate and dopamine in nucleus accumbens; design: species or system mouse
[7] = test system: locomotor activity of mice; experiment: Cocaine locomotion and motor sensitization; assay type: in vivo, mouse
Pin1-mGluR5 = experiment: Pin1 co-immunoprecipitation with mGluR5 from mouse striatum; assay type: in vivo
mGluR5 [8] = experiment: mGluR5 phosphorylation and Homer1a expression in mouse striatum; assay type: in vivo
Homer1a [9] = target: T1, Homer1a; experiment: Homer1a induction in cultured striatal neurons; assay type: cell-based; details: 30 min, 50 mM KCl
[10] = 10 mg/kg, WT n = 7, Grm5AA/AA n = 9
[11] = i.p. four times, 10 or 30 mg/kg
[12] = 20 mg/kg, i.p., mice, n = 6 each group

Pin1, sequence (Q13526 whole entry, species assumed): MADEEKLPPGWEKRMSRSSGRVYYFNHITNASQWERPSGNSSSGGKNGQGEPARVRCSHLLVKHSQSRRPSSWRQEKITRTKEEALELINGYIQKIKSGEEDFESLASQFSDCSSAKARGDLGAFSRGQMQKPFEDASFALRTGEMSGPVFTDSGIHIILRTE

Compound: mGluR5(S1126A): mutant that prevents phosphorylation at S1126
- GST-Pin1 binding to full-length mGluR5 (GST-Pin1): bound

Compound: CC(C(O)c1ccc(O)cc1)N1CCC(Cc2ccccc2)CC1 (stereo not shown) [ifenprodil]
- block of mGluR5-SIC by ifenprodil (NMDA receptors): blocked

Compound: mGluR5(T1123A): mutant that prevents phosphorylation at T1123
- GST-Pin1 binding to full-length mGluR5 (GST-Pin1): bound

Compound: Cc1cccc(C#Cc2ccccc2)n1 [MPEP, 2-Methyl-6-(phenylethynyl)pyridine]
- block of mGluR5-SIC by MPEP (mGluR5 [1]): blocked

Compound: N[C@@H](CCCP(=O)(O)O)C(=O)O [APV]
- block of mGluR5-SIC by APV (NMDA receptors; 50 μM): blocked

Compound: Ac-FY[pS]PR-NH2 [Pin1 control peptide mimic]
- effect of Pin1 peptide on BDNF potentiation of mGluR5-SIC (mGluR5-SIC [2]): not by Pin1 control peptide mimic

Compound: Oc1cc2c(cc1O)C(c1ccccc1)CNCC2 (stereo not shown) [SKF38393]
- depotentiation, pretreatment, WT slices ([3]; 0.5 hrs before HFS, n = 6 and n = 8): prevented depotentiation
- depotentiation, pretreatment, Homer1a−/− slices ([3]; 0.5 hrs before HFS, n = 10): failed to block depotentiation
- depotentiation, pretreatment, Grm5AA/AA slices ([3]; 0.5 hrs before HFS, n = 12): failed to block depotentiation
- depotentiation, acute, WT slices ([3]; beginning 25 min after HFS, n = 4): did not block depotentiation
- depotentiation, acute, Grm5R/R slices ([3]; beginning 25 min after HFS, n = 6): did block depotentiation
- mGluR5-SIC potentiation, D1R-GFP neurons (mGluR5-SIC [4]; SKF38393 1 μM after KCl pretreatment, D1-GFP, n = 8, p < 0.001): robust and consistent potentiation
- mGluR5-SIC potentiation, D2-GFP neurons (mGluR5-SIC [4]; SKF38393 1 μM after KCl pretreatment, D2-GFP, n = 10): not D2 receptor-expressing neurons
- mGluR5-SIC potentiation, Homer triple knockout neurons (mGluR5-SIC [4]; SKF38393 1 μM, bath, Homer1−/−Homer2−/−Homer3−/− neurons): potentiated
- neurons with potentiation of mGluR5-SIC (mGluR5-SIC [4]; SKF38393 1 μM, Homer1−/−Homer2−/−Homer3−/− neurons, p < 0.005): 6 of 13 neurons

Compound: mGluR5(T1123A, S1126A): mutant that prevents phosphorylation at both sites
- GST-Pin1 binding to full-length mGluR5 (GST-Pin1): did not bind

Compound: C[C@]12N[C@H](Cc3ccccc31)c1ccccc12 [MK-801]
- block of mGluR-SIC by MK-801 (NMDA receptors; in the recording pipette): Blockade

Compound: N#CC(=C(/N)Sc1ccccc1N)/C(C#N)=C(/N)Sc1ccccc1N [UO126]
- block of BDNF potentiation of mGluR5-SIC by MEK inhibitor (mGluR5-SIC [2]; 20 μM): blocked BDNF potentiation

Compound: mGluR5-pS: mGluR5 peptide phosphorylated at S^1126 in vitro (KELVALTPP[pS]PFRD)
- increase in Homer1a affinity on S1126 phosphorylation (Homer1a [5]): > 10 fold
- Pin1 catalysis of pS1126-P bond in the presence of equimolar Homer1a (Pin1): Pin1 was able to catalyze isomerization of pS^1126-P bond

Compound: COC(=O)[C@H]1[C@@H](OC(=O)c2ccccc2)C[C@@H]2CC[C@H]1N2C [cocaine]
- dopamine response, Grm5AA/AA mice, 1st injection [6, 10]: modest reduction
- glutamate response, Grm5AA/AA mice, 1st injection [6, 10]: normal glutamate response
- glutamate and dopamine response, Grm5AA/AA mice, 4th injection ([6]; 10 mg/kg, WT n = 7, Grm5AA/AA n = 9, P < 0.05): blunted neurotransmitter responsiveness
- glutamate and dopamine response, Homer1a−/− mice, 1st injection ([6]; 30 mg/kg, n = 8 each group): normal glutamate and dopamine responses
- glutamate and dopamine response, Homer1a−/− mice, 4th injection ([6]; 30 mg/kg, n = 8 each group, P < 0.05): blunted neurotransmitter responsiveness
- acute locomotor response, Grm5AA/AA mice ([7]; acute, i.p., 10 or 30 mg/kg): increased locomotor response to acute cocaine
- acute locomotor response, Grm5TS/AAPin1+/− double heterozygotes ([7]; acute, i.p., 10 or 30 mg/kg): WT-levels of activity in response to acute cocaine
- motor sensitization, Grm5AA/AA mice [7, 11]: markedly reduced sensitization
- motor sensitization, Grm5TS/AAPin1+/− double heterozygotes [7, 11]: reduced motor sensitization
- motor sensitization, Homer1a−/− mice [7, 11]: profound deficit of cocaine motor sensitization
- acute locomotor response, Homer1a−/− mice ([7]; initial dose, i.p. 10 or 30 mg/kg): WT-like response to the initial dose of cocaine
- Pin1 co-immunoprecipitation with mGluR5, Homer triple knockout (Pin1-mGluR5; 10 mg/kg, i.p., 30 min, Homer1−/−Homer2−/−Homer3−/− mice): increases after cocaine administration
- increase of Pin1 binding, WT mice (Pin1-mGluR5; acute cocaine, WT mice): did not detect an increase of Pin1 binding in WT mice
- mGluR5 phosphorylation, WT and Homer triple knockout (mGluR5 [8]; 10 mg/kg, i.p., 30 min, WT n = 6, Homer1−/−Homer2−/−Homer3−/− n = 7, versus saline): increased mGluR5 phosphorylation
- Homer1a expression in striatum (mGluR5 [8]; [12]): induces Homer1a expression
- mGluR5 Ser-1126 phosphorylation in striatum (mGluR5 [8]; [12]): induces transient phosphorylation
- mGluR5 Thr-1123 phosphorylation in striatum (mGluR5 [8]; [12]): not Thr-1123
- double phosphorylation of mGluR5 (mGluR5 [8]; cocaine administration, immunoselection of pT1123): Double phosphorylation is induced

Compound: WT mGluR5: full-length mGluR5 expressed in HEK293 cells
- GST-Pin1 binding to full-length mGluR5 (GST-Pin1): bound

Compound: [Cl-].[K+] [KCl]
- Homer1a induction (Homer1a [9]): induced Homer1a

Compound: O=C(O)[C@@H]1[C@H](C(=O)O)NCCN1C(=O)c1ccc2c(ccc3ccccc32)c1 [PPDA]
- block of mGluR5-SIC by PPDA (NMDA receptors; 0.2 μM): blocked

Compound: COC(=O)[C@@]1(O)C[C@H]2O[C@]1(C)n1c3ccccc3c3c4c(c5c6ccccc6n2c5c31)C(=O)NC4 [K252a]
- block of BDNF potentiation of mGluR5-SIC by TrkB inhibitor (mGluR5-SIC [2]; 100 nM): blocked BDNF potentiation

Compound: Ac–Phe–Phe–pSer-Ψ[(Z)CH=C]-Pro–Arg–NH2 [Pin1 peptide mimic inhibitor]
- effect of Pin1 peptide on BDNF potentiation of mGluR5-SIC (mGluR5-SIC [2]): blocked

From paper PMC3785238 (Cell, 2013)
